We go through six cell lines from the supplement of paper PMC10307832.

Common to all, as to test: relative viability (nuclei count vs DMSO), 5 days (fraction); higher = more cells survive
Compound in the experiment “DM3189 + Luminespib”: C1CN(CCN1)C2=CC=C(C=C2)C3=CN4C(=C(C=N4)C5=CC=NC6=CC=CC=C56)N=C3 [DM3189] + CCNC(=O)c1noc(-c2cc(C(C)C)c(O)cc2O)c1-c1ccc(CN2CCOCC2)cc1 [Luminespib] (partner 0.01 µM)
The method, boiled down: (§1)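 Lung cancer cell lines were seeded in 1536-well plates and dosed by pin tool the next day, with either a single drug or a fixed anchor-drug dose combined with five library-drug doses (not always all listed) spaced in √10 steps. Five days later, one step fixed the cells and stained their nuclei (final 0.05% Triton X-100, 1% formaldehyde, 1 ug/ml Hoechst), and nuclei were counted on 4× images. Relative viability is the nuclei count in treated wells divided by the count in vehicle wells, and each value is the median of duplicate plates.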

Compound in the experiment “DM3189 + Linsitinib”: C1CN(CCN1)C2=CC=C(C=C2)C3=CN4C(=C(C=N4)C5=CC=NC6=CC=CC=C56)N=C3 [DM3189] + C[C@]1(O)C[C@@H](c2nc(-c3ccc4ccc(-c5ccccc5)nc4c3)c3c(N)nccn32)C1 [Linsitinib] (partner 1 µM)
The gist of the method: as §1

Compound in the experiment “DM3189 + Palbociclib”: C1CN(CCN1)C2=CC=C(C=C2)C3=CN4C(=C(C=N4)C5=CC=NC6=CC=CC=C56)N=C3 [DM3189] + CC(=O)c1c(C)c2cnc(Nc3ccc(N4CCNCC4)cn3)nc2n(C2CCCC2)c1=O [Palbociclib] (partner 0.5 µM)
The gist of the method: as §1

Compound in the experiment “DM3189 + Olaparib”: C1CN(CCN1)C2=CC=C(C=C2)C3=CN4C(=C(C=N4)C5=CC=NC6=CC=CC=C56)N=C3 [DM3189] + O=C(c1cc(Cc2n[nH]c(=O)c3ccccc23)ccc1F)N1CCN(C(=O)C2CC2)CC1 [Olaparib] (partner 8 µM)
The method, boiled down: as §1

Compound in the experiment “DM3189 + AZD7762”: C1CN(CCN1)C2=CC=C(C=C2)C3=CN4C(=C(C=N4)C5=CC=NC6=CC=CC=C56)N=C3 [DM3189] + NC(=O)Nc1cc(-c2cccc(F)c2)sc1C(=O)N[C@H]1CCCNC1 [AZD7762] (partner 0.2 µM)
The gist of the method: as §1

Turning to NCI-H1975, the relative viability was found to be 0.302 with DM3189 + Luminespib (first compound 0.08 µM); 0.254 with DM3189 + Luminespib (first compound 0.253 µM); 0.162 with DM3189 + Luminespib (first compound 0.8 µM); 0.263 with DM3189 + Luminespib (first compound 2.53 µM); 1.18 in the experiment with DM3189 + Linsitinib (first compound 0.08 µM); 0.955 with DM3189 + Linsitinib (first compound 0.253 µM). Moreover, the relative viability was 0.929 in the experiment with DM3189 + Linsitinib (first compound 0.8 µM); 0.727 in the experiment with DM3189 + Linsitinib (first compound 2.53 µM); 0.697 with DM3189 + Palbociclib (first compound 0.08 µM); 0.57 with DM3189 + Palbociclib (first compound 0.253 µM); 0.379 in the experiment with DM3189 + Palbociclib (first compound 0.8 µM); 0.333 in the experiment with DM3189 + Palbociclib (first compound 2.53 µM). For the same cell line, the relative viability in the experiment with DM3189 + Olaparib (first compound 0.08 µM) is 0.952; with DM3189 + Olaparib (first compound 0.253 µM), 0.777; in the experiment with DM3189 + Olaparib (first compound 0.8 µM), 0.646; in the experiment with DM3189 + Olaparib (first compound 2.53 µM), 0.639; with DM3189 + AZD7762 (first compound 0.08 µM), 0.757; with DM3189 + AZD7762 (first compound 0.253 µM) it was 0.682. In addition, the relative viability in the experiment with DM3189 + AZD7762 (first compound 0.8 µM) came out at 0.522; with DM3189 + AZD7762 (first compound 2.53 µM), 0.625.
On to NCI-H1993, for which the relative viability with DM3189 + Luminespib (first compound 0.08 µM) is 0.785; in the experiment with DM3189 + Luminespib (first compound 0.253 µM), 0.705; with DM3189 + Luminespib (first compound 0.8 µM), 0.712; with DM3189 + Luminespib (first compound 2.53 µM), 0.885; with DM3189 + Linsitinib (first compound 0.253 µM) it was 0.616; in the experiment with DM3189 + Linsitinib (first compound 0.8 µM), 0.641. The relative viability with DM3189 + Linsitinib (first compound 2.53 µM) stood at 0.706; with DM3189 + Palbociclib (first compound 0.08 µM) it was 0.779; in the experiment with DM3189 + Palbociclib (first compound 0.253 µM) it was 0.809; with DM3189 + Palbociclib (first compound 0.8 µM) it was 0.571; with DM3189 + Palbociclib (first compound 2.53 µM), 0.736; in the experiment with DM3189 + Olaparib (first compound 0.08 µM), 1.05. Moreover, the relative viability with DM3189 + Olaparib (first compound 0.253 µM) turned out to be 1.13; in the experiment with DM3189 + Olaparib (first compound 0.8 µM), 1.02; with DM3189 + Olaparib (first compound 2.53 µM), 1.13; with DM3189 + AZD7762 (first compound 0.08 µM) it was 0.824; in the experiment with DM3189 + AZD7762 (first compound 0.253 µM), 0.776; in the experiment with DM3189 + AZD7762 (first compound 0.8 µM), 0.653. Further, the relative viability with DM3189 + AZD7762 (first compound 2.53 µM) came to 0.643.
As for NCI-H2085, the relative viability was 0.359 in the experiment with DM3189 + Luminespib (first compound 0.08 µM); 0.389 in the experiment with DM3189 + Luminespib (first compound 0.253 µM); 0.478 with DM3189 + Luminespib (first compound 0.8 µM); 0.951 with DM3189 + Luminespib (first compound 2.53 µM); 0.932 with DM3189 + Linsitinib (first compound 0.08 µM); 0.858 with DM3189 + Linsitinib (first compound 0.253 µM). Also, the relative viability with DM3189 + Linsitinib (first compound 0.8 µM) turned out to be 0.973; with DM3189 + Linsitinib (first compound 2.53 µM) it was 0.946; in the experiment with DM3189 + Palbociclib (first compound 0.08 µM), 0.47; with DM3189 + Palbociclib (first compound 0.253 µM), 0.457; with DM3189 + Palbociclib (first compound 0.8 µM) it was 0.468; with DM3189 + Palbociclib (first compound 2.53 µM), 0.537. For the same cell line, the relative viability with DM3189 + Olaparib (first compound 0.08 µM) was found to be 0.735; in the experiment with DM3189 + Olaparib (first compound 0.253 µM), 0.804; in the experiment with DM3189 + Olaparib (first compound 0.8 µM), 0.804; in the experiment with DM3189 + Olaparib (first compound 2.53 µM), 0.883; with DM3189 + AZD7762 (first compound 0.08 µM), 0.994; in the experiment with DM3189 + AZD7762 (first compound 0.253 µM), 1.06. Moreover, the relative viability with DM3189 + AZD7762 (first compound 0.8 µM) came out at 0.965; with DM3189 + AZD7762 (first compound 2.53 µM), 1.03.
For the cell line NCI-H2087, the relative viability in the experiment with DM3189 + Luminespib (first compound 0.08 µM) worked out at 0.187; with DM3189 + Luminespib (first compound 0.253 µM), 0.145; with DM3189 + Luminespib (first compound 0.8 µM) it was 0.139; in the experiment with DM3189 + Luminespib (first compound 2.53 µM), 0.176; in the experiment with DM3189 + Linsitinib (first compound 0.08 µM), 1.06; with DM3189 + Linsitinib (first compound 0.253 µM), 0.909. Besides, the relative viability is 1.11 with DM3189 + Linsitinib (first compound 0.8 µM); 0.969 with DM3189 + Linsitinib (first compound 2.53 µM); 0.212 with DM3189 + Palbociclib (first compound 0.08 µM); 0.197 with DM3189 + Palbociclib (first compound 0.253 µM); 0.224 with DM3189 + Palbociclib (first compound 0.8 µM); 0.238 with DM3189 + Palbociclib (first compound 2.53 µM). Also, the relative viability worked out at 0.511 with DM3189 + Olaparib (first compound 0.08 µM); 0.563 with DM3189 + Olaparib (first compound 0.253 µM); 0.505 with DM3189 + Olaparib (first compound 0.8 µM); 0.316 with DM3189 + Olaparib (first compound 2.53 µM); 1.42 in the experiment with DM3189 + AZD7762 (first compound 0.08 µM); 1.23 with DM3189 + AZD7762 (first compound 0.253 µM). For the same cell line, the relative viability with DM3189 + AZD7762 (first compound 0.8 µM) was 1.38; with DM3189 + AZD7762 (first compound 2.53 µM) it was 1.1.
Consider NCI-H2126, for which the relative viability with DM3189 + Luminespib (first compound 0.08 µM) is 1.13; with DM3189 + Luminespib (first compound 0.253 µM), 0.875; with DM3189 + Luminespib (first compound 0.8 µM) it was 0.913; with DM3189 + Luminespib (first compound 2.53 µM), 0.889; with DM3189 + Linsitinib (first compound 0.08 µM), 0.708; with DM3189 + Linsitinib (first compound 0.253 µM) it was 0.799. Further, the relative viability came out at 0.779 with DM3189 + Linsitinib (first compound 0.8 µM); 0.799 in the experiment with DM3189 + Linsitinib (first compound 2.53 µM); 0.346 in the experiment with DM3189 + Palbociclib (first compound 0.08 µM); 0.348 with DM3189 + Palbociclib (first compound 0.253 µM); 0.367 in the experiment with DM3189 + Palbociclib (first compound 0.8 µM); 0.374 in the experiment with DM3189 + Palbociclib (first compound 2.53 µM). Moreover, the relative viability with DM3189 + Olaparib (first compound 0.08 µM) amounted to 0.99; in the experiment with DM3189 + Olaparib (first compound 0.253 µM), 0.89; in the experiment with DM3189 + Olaparib (first compound 0.8 µM) it was 0.896; in the experiment with DM3189 + Olaparib (first compound 2.53 µM), 0.991; with DM3189 + AZD7762 (first compound 0.08 µM), 1.05; in the experiment with DM3189 + AZD7762 (first compound 0.253 µM), 1.07. Also, the relative viability in the experiment with DM3189 + AZD7762 (first compound 0.8 µM) amounted to 0.968; with DM3189 + AZD7762 (first compound 2.53 µM) it was 1.01.
With NCI-H2347, the relative viability in the experiment with DM3189 + Luminespib (first compound 0.08 µM) came to 0.671; with DM3189 + Luminespib (first compound 0.253 µM), 0.504; with DM3189 + Luminespib (first compound 0.8 µM) it was 0.565; with DM3189 + Luminespib (first compound 2.53 µM), 0.485; with DM3189 + Linsitinib (first compound 0.08 µM), 0.98; with DM3189 + Linsitinib (first compound 0.253 µM), 1. The relative viability with DM3189 + Linsitinib (first compound 0.8 µM) worked out at 0.907; with DM3189 + Linsitinib (first compound 2.53 µM), 0.97; with DM3189 + Palbociclib (first compound 0.08 µM) it was 0.412; with DM3189 + Palbociclib (first compound 0.253 µM), 0.4; in the experiment with DM3189 + Palbociclib (first compound 0.8 µM) it was 0.417; in the experiment with DM3189 + Palbociclib (first compound 2.53 µM), 0.435. In addition, the relative viability was 0.544 in the experiment with DM3189 + Olaparib (first compound 0.08 µM); 0.53 with DM3189 + Olaparib (first compound 0.253 µM); 0.522 with DM3189 + Olaparib (first compound 0.8 µM); 0.55 with DM3189 + Olaparib (first compound 2.53 µM); 0.726 with DM3189 + AZD7762 (first compound 0.08 µM); 0.779 in the experiment with DM3189 + AZD7762 (first compound 0.253 µM). Moreover, the relative viability in the experiment with DM3189 + AZD7762 (first compound 0.8 µM) came out at 0.723; with DM3189 + AZD7762 (first compound 2.53 µM), 0.733.
